According to ChEMBL document CHEMBL1124350, “Retinobenzoic acids. 4. Conformation of aromatic amides with retinoidal activity. Importance of trans-amide structure for the activity” (1989):

How the values were obtained:
HL-60 [1] = experiment: Compound was tested for differentiation-inducing activity against human promyelocytic leukemia cell line HL-60; format: functional; details: read-out: ED50 (the source's name)
HL-60 [2] = experiment: Relative activity expressed as mean of ratio of effective dose of retinoic acid against HL-60 cell versus the compound; format: functional, Homo sapiens

| EC50 (HL-60 [1]) [nM] | Structure (SMILES) | Relative activity (HL-60 [2]) |
| --- | --- | --- |
| > 1000 | CN(C(=O)c1ccc(C(=O)O)cc1)c1ccc2c(c1)C(C)(C)CCC2(C)C | <0.01 |
| 2.4 | CC1=C(/C=C/C(C)=C/C=C/C(C)=C/C(=O)O)C(C)(C)CCC1 [TRETINOIN] | 100 |
| 150 | CC1(C)CCC(C)(C)c2cc3c(cc21)CCN3C(=O)c1ccc(C(=O)O)cc1 | 1.1 |
| 510 | CC1(C)CCC(C)(C)c2cc3c(cc21)CN(c1ccc(C(=O)O)cc1)C3=O | 0.33 |
| 65 | CC1(C)CCC(C)(C)c2cc3c(ccn3C(=O)c3ccc(C(=O)O)cc3)cc21 | 2.6 |
| > 1000 | CN(C(=O)c1ccc2c(c1)C(C)(C)CCC2(C)C)c1ccc(C(=O)O)cc1 | < 0.01 |
| 0.79 | CC1(C)CCC(C)(C)c2cc(NC(=O)c3ccc(C(=O)O)cc3)ccc21 [TAMIBAROTENE] | 350 |
| 0.34 | CC1(C)CCC(C)(C)c2cc(C(=O)Nc3ccc(C(=O)O)cc3)ccc21 | 720 |
